From patent US9951292B2, “Grease composition” (TOTAL MARKETING SERVICES, priority 2011, dated 2018) come the findings set out here.

For one series, the system named is algae and daphnia. Description: Aquatic toxicity to algae and daphnia according to standards OECD 201 and 202. Format: in vivo. From the text: Preferably, the grease compositions according to the invention contain additives which are not hazardous to the environment and human health. Preferably, the grease compositions according to the invention are free from organic halogenated compounds, nitrite type compounds, metals or metallic compounds other than sodium, potassium, magnesium, calcium, lithium and/or aluminium. Preferably, the grease compositions according to the invention are not toxic to the aquatic environment. In particular the grease compositions according to the invention have an aquatic toxicity to algae, daphnia and fish of at least 1000 mg/l according to standards OECD 201, 202 and 203.
Similarly, the main constituents of the grease, i.e. those present at more than 5% by mass with respect to the total mass of the grease composition, such as the base oil and the soap, have an aquatic toxicity to algae and daphnia of at least 100 mg/l according to standards OECD 201 and 202.
Similarly, when a constituent has an aquatic toxicity to algae and daphnia of at least 100 mg/l according to standards OECD 201 and 202 (category D), said constituent can be present in the grease at any concentration. The grease compositions according to the invention have a concentration by mass of constituents having an aquatic toxicity to algae and daphnia comprised between 10 mg/l and 100 mg/l according to standards OECD 201 and 202 (category E), less than or equal to 25%. The grease compositions according to the invention have a concentration by mass of constituents having an aquatic toxicity to algae and daphnia comprised between 1 mg/l and 10 mg/l according to standards OECD 201 and 202 (category F), less than or equal to 2%, preferably less than or equal to 1%. This only concerns the constituents of the grease the concentration by mass in the grease of which is greater than or equal to 0.1%.

Series [1] is described as follows: Biodegradability according to standard OECD 301B. From the text: This only concerns the constituents of the grease the concentration by mass in the grease of which is greater than or equal to 0.1%.

For the compound `CCCCCCCCCCCCCCCCCCOC(=O)CCc1cc(C(C)(C)C)c(O)c(C(C)(C)C)c1` [antioxidant 2, Octadecyl 3-(3,5-ditertiobutyl-4-hydroxyphenyl) propanoate], the “aquatic toxicity to algae and daphnia” value with algae and daphnia (in vivo) is given as “over 100 mg/l”.

Consider `CCCCCCC(O)CCCCCCCCCCC(=O)[O-].[Li+]` (centres unmarked) [lithium 12-hydroxystearate], for which, in the series with algae and daphnia (OECD 201 and 202), the “aquatic toxicity to algae and daphnia” value is listed as “over 100 mg/l”; the “aquatic toxicity to algae and daphnia, category” value was “D (aquatic toxicity to algae and daphnia of at least 100 mg/l according to standards OECD 201 and 202 (category D))”.

Regarding Tolyltriazole [corrosion inhibitor 2], in the series with algae and daphnia (in vivo), the “aquatic toxicity to algae and daphnia” value was in the range of 1 to 10 mg/L. The biodegradability in series [1] is reported as 4%.
